Measurements published in ChEMBL document CHEMBL1201862, “PubChem BioAssay data set” (2004).
The source made the active and inactive calls.

What was measured:
Escherichia coli [1] = assay: microbe, parasite or virus in culture
Leucine aminopeptidase = molecular target: T1, Leucine aminopeptidase (Plasmodium falciparum 3D7, UniProt Q8IL11); assay: P. falciparum M17LAP inhibitors, primary screen, biochemical, fluorogenic H-Leu-NHMec substrate, 1536-well (AID 1619); type: functional
T1 sequence (Q8IL11 whole entry): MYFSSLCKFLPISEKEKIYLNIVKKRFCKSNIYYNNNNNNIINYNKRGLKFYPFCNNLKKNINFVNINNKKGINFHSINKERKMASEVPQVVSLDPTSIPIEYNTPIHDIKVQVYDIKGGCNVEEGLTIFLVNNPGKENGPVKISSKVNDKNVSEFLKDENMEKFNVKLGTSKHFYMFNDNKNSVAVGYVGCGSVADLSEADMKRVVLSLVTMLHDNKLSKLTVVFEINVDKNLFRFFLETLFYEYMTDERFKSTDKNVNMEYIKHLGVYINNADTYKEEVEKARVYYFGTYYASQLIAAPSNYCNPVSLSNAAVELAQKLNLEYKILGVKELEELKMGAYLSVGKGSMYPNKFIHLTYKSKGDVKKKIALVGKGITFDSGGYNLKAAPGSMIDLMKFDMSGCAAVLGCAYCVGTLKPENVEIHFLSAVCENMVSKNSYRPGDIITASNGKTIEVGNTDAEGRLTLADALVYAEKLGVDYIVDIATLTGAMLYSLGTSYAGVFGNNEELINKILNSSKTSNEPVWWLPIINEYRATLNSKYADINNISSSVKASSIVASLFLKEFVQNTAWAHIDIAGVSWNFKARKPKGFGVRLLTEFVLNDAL

[2] = inhibition of ARNT PAS-B/TACC3 complex formation – biochemical, AlphaScreen, cherry-picked samples, confirmation (AID 651703); type: functional, Homo sapiens;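 further: His-tagged ARNT PAS-B domain paired with GST-TACC3 E629A dimer coactivator fragment; potency of inhibitors that break up the complex and lower AlphaScreen signal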
[3] = molecular target: Ras and Rab interactor 1/Tyrosine-protein kinase ABL1 (Homo sapiens, UniProt P00519+Q13671); type: functional;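 further: biochemical TR-FRET dose-response test measuring inhibition of binding between Rin1 and Abl proteins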
[4] = molecular target: T2, ATP-dependent translocase ABCB1 (Homo sapiens, UniProt P08183); assay: P-gp JC-1 efflux blockade concentration-response – Jurkat-DNR cells, flow cytometry, set 2, dose response (AID 504569); type: functional; details: read-out: EC50_MICROM_;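 further: potency of pump inhibitors that raise cellular JC-1 green fluorescence up to the nicardipine level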
[5] = molecular target: T2, ATP-dependent translocase ABCB1; assay: inhibition of BCRP-mediated JC-1 efflux – Ig-MXP3 cells, flow cytometry, set 2, dose response (AID 504566); type: functional; details: read-out: EC50_MICROM_;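 further: flow cytometry median green fluorescence of retained JC-1 dye; potency of efflux pump inhibition measured as rising substrate retention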
[6] = Luminescence Cell-Based Dose Retest to Confirm Inhibitors of Cancer Stem Cells. [Related pubchem assays (depositor defined):AID2717, AID2721]; type: functional; details: Homo sapiens
[7] = molecular target: Photoreceptor-specific nuclear receptor (Homo sapiens, UniProt Q9Y5X4); type: functional, cell-based;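 further: CHO-S cells with Gal4-NCOR and VP16-NR2E3 two-hybrid luciferase reporter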
[8] = molecular target: T3, High affinity choline transporter 1 (Homo sapiens, UniProt Q9GZV3); assay: human choline transporter blockers, potency – cell-based, 10-point CRC, membrane potential dye, dose response (AID 588401); type: functional;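 further: membrane potential dye fluorescence of choline-evoked depolarization via CHT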
T3 sequence (Q9GZV3 whole entry): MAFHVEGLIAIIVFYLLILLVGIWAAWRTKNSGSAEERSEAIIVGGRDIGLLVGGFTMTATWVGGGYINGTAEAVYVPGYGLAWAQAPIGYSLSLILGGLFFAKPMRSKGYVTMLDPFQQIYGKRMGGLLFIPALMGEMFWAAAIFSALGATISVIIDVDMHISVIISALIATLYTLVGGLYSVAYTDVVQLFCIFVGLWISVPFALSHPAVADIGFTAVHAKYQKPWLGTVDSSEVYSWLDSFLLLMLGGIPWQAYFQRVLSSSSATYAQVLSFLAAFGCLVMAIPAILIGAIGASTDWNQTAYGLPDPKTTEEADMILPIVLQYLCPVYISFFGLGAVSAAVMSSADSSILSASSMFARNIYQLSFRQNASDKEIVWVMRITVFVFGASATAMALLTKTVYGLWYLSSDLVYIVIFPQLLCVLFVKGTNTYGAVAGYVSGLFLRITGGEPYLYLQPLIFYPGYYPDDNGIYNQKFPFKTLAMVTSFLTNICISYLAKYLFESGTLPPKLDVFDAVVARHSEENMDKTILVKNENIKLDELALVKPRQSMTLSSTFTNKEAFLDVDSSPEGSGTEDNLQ

[9] = molecular target: T3, High affinity choline transporter 1; assay: human choline transporter blockers, potency – cell-based, 5-point CRC, membrane potential dye, dose response (AID 504840); type: functional
[10] = A cytotoxicity screen of small molecule inhibitors of the PhoP region in Salmonella typhi identified in the primary screen. [Related pubchem assays: 1850, 1864, 1985 ]; type: functional
[11] = luciferase reporter signal suppression in cells – H4 neuroglioma cells, luminescence, dose response (AID 1990); type: functional, cell-based
[12] = NIH3T3 cell viability loss – ATP luminescence, mouse fibroblasts, counter-screen, dose response (AID 2010); type: functional, cell-based;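 further: cells exposed to compound for about 90 hours before reading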
[13] = fluconazole-exposed Candida albicans growth modulators – fluorescence, retest, confirmation (AID 2467); type: functional, cell-based
[14] = Luminescence Cell-Based Dose Response HTS to Identify Inhibitors of 5'UTR Stem-Loop Driven Prion Protein mRNA Translation in H4 Neuroglioblastoma Cells. [Related pubchem assays: 1827 (Project Summary), 1813 (Primary HTS)]; type: functional
[15] = alpha-synuclein stem-loop luciferase translation blockers – H4 neuroglioma cells, luminescence, confirmation (AID 1988); type: functional, cell-based
[16] = NIH-3T3 fibroblast cytotoxicity, dose response, cytotoxicity control, cell-based, fluorescence, Alamar Blue, secondary assay (AID 2327); type: functional;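 further: NIH-3T3 mouse fibroblasts cultured with fluconazole at 8 µg/mL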
[17] = molecular target: ATP-dependent molecular chaperone HSP82 (Candida albicans (strain WO-1) (Yeast), UniProt C4YTQ8); assay: steroid-induced GRE reporter decrease in yeast – S. cerevisiae, luminescence, Hsp90 inhibitor project, dose response (AID 2400); type: functional, cell-based;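 further: beta-galactosidase luminescence from glucocorticoid response element reporter as proxy for Hsp90 function; inhibitor potency where signal loss means Hsp90 inhibition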
INS1 = assay: INS-1E survival protection against cytokine death – cell-based, luminescence, retest, dose response (AID 449756); type: functional; details: Rattus norvegicus;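 further: cell death triggered by IL-1 beta plus TNF-alpha plus IFN-gamma mixture; protective hits raise ATP signal compared with cytokine alone wells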
[18] = Trypanosoma cruzi growth suppression in host cells – NIH3T3 host cells, beta-gal luminescence, confirmation (AID 2044); type: functional, cell-based;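 further: intracellular parasites grown in NIH/3T3 mouse fibroblasts as host cells; luminescent beta-galactosidase reporter signal from transgenic T. cruzi replicating inside host cells; inhibitors lower the luminescence signal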
[19] = molecular target: T4, Serine/threonine-protein phosphatase (Candida dubliniensis (strain CD36 / CBS 7987 / NCPF 3949 / NRRLY-17841) (Yeast), UniProt B9W6M3); assay: blockers of CaCl2-induced CDRE-lacZ signaling – S. cerevisiae, luminescence, secondary, dose response (AID 2388); type: functional, cell-based;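 further: yeast reporter cells carrying a calcineurin-responsive lacZ construct stimulated with calcium chloride; luminescent beta-galactosidase reporter signal in whole cells rather than isolated phosphatase activity; potency for inhibition where a drop in reporter signal means calcineurin blockade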
T4 sequence (B9W6M3 whole entry): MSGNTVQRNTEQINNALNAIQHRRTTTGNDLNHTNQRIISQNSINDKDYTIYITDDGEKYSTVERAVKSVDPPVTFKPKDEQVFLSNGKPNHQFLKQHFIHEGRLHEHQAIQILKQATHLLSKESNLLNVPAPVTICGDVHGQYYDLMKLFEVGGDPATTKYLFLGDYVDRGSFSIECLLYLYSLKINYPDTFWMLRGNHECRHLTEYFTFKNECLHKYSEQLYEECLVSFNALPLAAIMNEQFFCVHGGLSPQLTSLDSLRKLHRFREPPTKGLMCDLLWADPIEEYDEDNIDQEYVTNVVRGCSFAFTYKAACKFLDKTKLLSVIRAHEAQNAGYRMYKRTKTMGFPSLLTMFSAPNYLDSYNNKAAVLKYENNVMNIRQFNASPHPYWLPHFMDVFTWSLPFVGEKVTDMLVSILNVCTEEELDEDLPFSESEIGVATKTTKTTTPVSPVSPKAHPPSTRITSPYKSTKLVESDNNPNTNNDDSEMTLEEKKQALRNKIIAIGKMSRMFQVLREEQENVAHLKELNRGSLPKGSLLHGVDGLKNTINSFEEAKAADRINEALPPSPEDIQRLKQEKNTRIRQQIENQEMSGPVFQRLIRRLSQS

[20] = molecular target: Potassium voltage-gated channel subfamily KQT member 2 (Rattus norvegicus, UniProt O88943); assay: blockers of KCNQ2 channel current – cell-based, automated electrophysiology, set II, rat KCNQ2, dose response (AID 588637); type: functional
Escherichia coli [21] = assay: microbe, parasite or virus in culture; remark: listed apart in the source
cells [22] = type: functional, cell-based
[23] = molecular target: T5, Probable nicotinate-nucleotide adenylyltransferase (Staphylococcus aureus (strain N315), UniProt P65502); type: functional, Staphylococcus aureus subsp. aureus N315;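 on IC50 Mean: confirmatory dose-response retesting of NadD inhibitor hits first found in an ultra-high-throughput screen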
[24] = molecular target: T5, Probable nicotinate-nucleotide adenylyltransferase; type: functional, Staphylococcus aureus subsp. aureus N315; details: read-out: IC50_Mean
cells [25] = type: functional, cell-based; remark: listed apart in the source
Streptokinase A = molecular target: T6, Streptokinase A (Streptococcus pyogenes serotype M1, UniProt P10520); assay: viability-normalized secreted streptokinase activity reduction – plasminogen activation absorbance, OD405, dose response (AID 1914); type: functional, Streptococcus pyogenes M1 GAS;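 further: secreted streptokinase activity via plasminogen activation per viability signal from cell pellet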
T6 sequence (P10520 whole entry): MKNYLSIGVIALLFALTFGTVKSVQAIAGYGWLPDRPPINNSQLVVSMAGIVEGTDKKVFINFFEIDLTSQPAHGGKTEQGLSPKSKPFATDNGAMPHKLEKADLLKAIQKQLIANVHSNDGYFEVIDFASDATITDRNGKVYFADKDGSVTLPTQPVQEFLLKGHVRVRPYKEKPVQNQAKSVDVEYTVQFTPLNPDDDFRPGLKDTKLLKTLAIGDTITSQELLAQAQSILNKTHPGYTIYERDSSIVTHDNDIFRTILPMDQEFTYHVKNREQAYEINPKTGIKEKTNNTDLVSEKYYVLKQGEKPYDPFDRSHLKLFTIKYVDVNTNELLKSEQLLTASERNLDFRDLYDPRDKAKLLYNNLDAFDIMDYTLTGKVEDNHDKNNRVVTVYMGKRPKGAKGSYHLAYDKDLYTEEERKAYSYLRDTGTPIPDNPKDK

[26] = test system: Streptococcus sp. 'group A'; assay: Streptococcus pyogenes SK(-)GAS viability under kanamycin – luminescence, BacTiterGlo, confirmation, counter-screen for streptokinase expression inhibitor project, dose response (AID 1900); type: functional, organism-based
Streptococcus = assay: GAS UMAA2166 growth inhibition – luminescence, BacTiterGlo, counter-screen for streptokinase expression inhibitor project, dose response (AID 1915); type: functional, organism-based;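 further: potency for reduction of bacterial viability or growth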

T2 sequence (P08183 whole entry): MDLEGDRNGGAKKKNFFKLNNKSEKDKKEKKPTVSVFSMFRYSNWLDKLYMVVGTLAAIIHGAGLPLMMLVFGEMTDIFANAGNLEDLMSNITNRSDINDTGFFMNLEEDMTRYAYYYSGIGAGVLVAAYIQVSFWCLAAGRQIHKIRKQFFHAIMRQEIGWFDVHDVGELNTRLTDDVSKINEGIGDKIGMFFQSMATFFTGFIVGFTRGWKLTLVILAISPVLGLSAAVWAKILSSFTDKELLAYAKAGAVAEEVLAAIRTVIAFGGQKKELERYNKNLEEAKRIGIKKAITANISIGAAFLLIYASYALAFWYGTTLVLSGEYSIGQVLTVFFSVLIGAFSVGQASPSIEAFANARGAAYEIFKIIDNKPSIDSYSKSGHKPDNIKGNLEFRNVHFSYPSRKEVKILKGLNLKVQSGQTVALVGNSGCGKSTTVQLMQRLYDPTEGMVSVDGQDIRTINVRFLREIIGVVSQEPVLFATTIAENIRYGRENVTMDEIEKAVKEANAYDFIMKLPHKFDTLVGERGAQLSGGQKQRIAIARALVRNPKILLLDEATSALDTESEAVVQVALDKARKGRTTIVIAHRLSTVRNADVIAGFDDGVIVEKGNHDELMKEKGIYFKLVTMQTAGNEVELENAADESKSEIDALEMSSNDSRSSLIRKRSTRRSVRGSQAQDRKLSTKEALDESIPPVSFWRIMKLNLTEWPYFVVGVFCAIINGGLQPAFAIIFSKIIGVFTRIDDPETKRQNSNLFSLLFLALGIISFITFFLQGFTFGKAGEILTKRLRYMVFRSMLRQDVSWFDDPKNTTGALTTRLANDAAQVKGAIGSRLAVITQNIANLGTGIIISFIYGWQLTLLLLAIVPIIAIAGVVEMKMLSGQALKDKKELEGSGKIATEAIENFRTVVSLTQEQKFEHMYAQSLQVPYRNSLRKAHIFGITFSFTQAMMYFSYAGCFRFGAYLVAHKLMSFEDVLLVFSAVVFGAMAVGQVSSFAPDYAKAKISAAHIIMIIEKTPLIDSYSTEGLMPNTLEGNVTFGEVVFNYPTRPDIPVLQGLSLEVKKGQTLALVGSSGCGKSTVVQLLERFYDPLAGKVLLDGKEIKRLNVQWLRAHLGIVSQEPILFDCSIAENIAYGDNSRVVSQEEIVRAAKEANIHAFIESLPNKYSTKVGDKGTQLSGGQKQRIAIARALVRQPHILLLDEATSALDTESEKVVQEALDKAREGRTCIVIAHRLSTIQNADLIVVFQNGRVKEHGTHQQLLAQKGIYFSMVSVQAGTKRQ
ATP-dependent molecular chaperone HSP82, sequence (C4YTQ8 whole entry): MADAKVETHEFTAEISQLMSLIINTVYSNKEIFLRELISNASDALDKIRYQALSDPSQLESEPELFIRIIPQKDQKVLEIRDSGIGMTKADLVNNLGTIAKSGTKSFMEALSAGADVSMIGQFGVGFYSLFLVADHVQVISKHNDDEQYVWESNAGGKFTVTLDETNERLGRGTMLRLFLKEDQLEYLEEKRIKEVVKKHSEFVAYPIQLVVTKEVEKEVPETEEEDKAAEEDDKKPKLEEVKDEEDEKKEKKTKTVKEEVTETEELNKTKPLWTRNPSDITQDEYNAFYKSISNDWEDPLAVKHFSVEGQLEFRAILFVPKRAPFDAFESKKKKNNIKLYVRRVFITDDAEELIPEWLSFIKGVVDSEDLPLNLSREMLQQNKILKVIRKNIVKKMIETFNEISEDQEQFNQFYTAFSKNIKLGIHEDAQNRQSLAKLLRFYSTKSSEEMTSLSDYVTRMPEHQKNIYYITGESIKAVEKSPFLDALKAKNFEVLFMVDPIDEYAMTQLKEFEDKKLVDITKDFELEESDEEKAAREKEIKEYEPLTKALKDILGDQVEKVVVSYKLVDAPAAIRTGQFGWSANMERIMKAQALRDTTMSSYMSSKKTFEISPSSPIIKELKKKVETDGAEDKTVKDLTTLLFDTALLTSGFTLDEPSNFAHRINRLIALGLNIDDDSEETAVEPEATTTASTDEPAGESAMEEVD
T5 sequence (P65502 whole entry): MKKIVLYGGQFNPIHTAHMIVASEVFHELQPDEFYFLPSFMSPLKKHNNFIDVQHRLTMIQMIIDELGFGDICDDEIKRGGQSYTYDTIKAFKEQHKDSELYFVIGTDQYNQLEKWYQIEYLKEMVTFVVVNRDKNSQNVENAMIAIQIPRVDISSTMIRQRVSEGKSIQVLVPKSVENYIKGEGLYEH
Photoreceptor-specific nuclear receptor, sequence (Q9Y5X4 whole entry, the tested form may be a part): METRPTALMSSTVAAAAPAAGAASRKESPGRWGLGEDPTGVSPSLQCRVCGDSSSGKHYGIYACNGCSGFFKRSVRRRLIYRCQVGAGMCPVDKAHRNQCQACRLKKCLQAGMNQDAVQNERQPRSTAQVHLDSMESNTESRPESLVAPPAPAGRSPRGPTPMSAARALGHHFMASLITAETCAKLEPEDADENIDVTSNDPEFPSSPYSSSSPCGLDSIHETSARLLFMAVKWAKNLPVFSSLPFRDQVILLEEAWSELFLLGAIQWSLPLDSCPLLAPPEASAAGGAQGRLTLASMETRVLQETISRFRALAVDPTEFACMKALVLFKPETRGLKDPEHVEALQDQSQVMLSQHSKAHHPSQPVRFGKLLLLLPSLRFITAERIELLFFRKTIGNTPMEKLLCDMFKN
Potassium voltage-gated channel subfamily KQT member 2, sequence (O88943 whole entry): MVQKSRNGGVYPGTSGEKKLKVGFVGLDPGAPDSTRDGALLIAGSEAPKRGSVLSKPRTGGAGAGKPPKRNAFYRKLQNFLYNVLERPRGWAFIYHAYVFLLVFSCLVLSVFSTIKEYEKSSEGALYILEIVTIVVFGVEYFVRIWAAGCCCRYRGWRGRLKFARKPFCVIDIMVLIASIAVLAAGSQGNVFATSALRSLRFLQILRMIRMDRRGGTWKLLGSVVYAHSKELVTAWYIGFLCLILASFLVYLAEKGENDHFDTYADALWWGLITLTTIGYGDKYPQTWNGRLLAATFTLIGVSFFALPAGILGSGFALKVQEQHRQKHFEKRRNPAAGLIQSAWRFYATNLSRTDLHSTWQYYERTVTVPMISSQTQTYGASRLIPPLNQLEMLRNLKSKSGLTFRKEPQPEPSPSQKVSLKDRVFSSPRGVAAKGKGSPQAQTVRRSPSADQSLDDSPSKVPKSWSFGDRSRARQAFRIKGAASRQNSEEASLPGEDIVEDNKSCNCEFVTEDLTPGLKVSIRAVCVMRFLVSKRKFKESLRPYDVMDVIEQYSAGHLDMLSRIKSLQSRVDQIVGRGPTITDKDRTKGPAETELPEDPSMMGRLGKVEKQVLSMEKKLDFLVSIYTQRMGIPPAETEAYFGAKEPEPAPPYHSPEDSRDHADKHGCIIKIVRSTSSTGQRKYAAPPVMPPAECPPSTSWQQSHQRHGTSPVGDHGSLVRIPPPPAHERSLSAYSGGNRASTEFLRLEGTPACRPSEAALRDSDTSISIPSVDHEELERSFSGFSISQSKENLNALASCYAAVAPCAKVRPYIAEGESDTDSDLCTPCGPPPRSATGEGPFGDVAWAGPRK

O=C(c1ccccc1F)N1C(=O)c2cccc3cccc1c23
AC50 (Escherichia coli [1]): 38.6 µM (active)

O=C(O)COc1ccccc1/C=N/NC(=O)c1cccc(S(=O)(=O)Nc2cccc(Cl)c2)c1
IC50 (Leucine aminopeptidase): 21.3 µM (active) | AC50 [2]: 73.8 µM (active)

CCc1nnc(NC(=O)CCc2nc(C3=CCN(C)CC3)no2)s1
IC50 [3]: 3.81 µM (active)

O=C(c1ccco1)N1CCN(c2cc(-c3ccccc3)nc3cc(-c4ccc(Cl)cc4)nn23)CC1
EC50 [4]: 2.6 µM (active) | EC50 [5]: 0.99 µM (active)

O=C(NC(=O)N1CCN(c2cccc(Cl)c2)CC1)c1ccc(Cl)cc1
AC50 [6]: 0.263 µM (active) | IC50 [7]: 3.05 µM (active)

Cc1ccc(CNC(=O)c2ccccc2NS(=O)(=O)c2ccc(Cl)nc2)cc1
IC50 [8]: 4.22 µM (active) | IC50 [9]: 7.31 µM (active)

COc1ccc(-n2c(C)cc(C(=O)COC(=O)c3ccc(O)cc3O)c2C)cc1
IC50 [7]: 5.7 µM (active)

NS(=O)(=O)c1ccc(CNc2ccc3ccccc3n2)cc1
EC50 [10]: > 50 µM (active) | IC50 [8]: 3.57 µM (active) | IC50 [9]: 3.76 µM (active)

Cc1ccc(C(=O)O/N=C/c2c(N3CCOCC3)n(C)c3ccccc23)cc1
EC50 [11]: > 120 µM (not active) | EC50 [12]: 3.44 µM (active) | EC50 [13]: 0.419 µM (active) | EC50 [14]: 10.9 µM (active) | EC50 [15]: > 120 µM (not active) | EC50 [16]: > 160 µM (inconclusive) | EC50 [17]: > 160 µM (inactive) | AC50 (INS1): 0.915 µM (active) | EC50 [18]: 0.799 µM (active) | EC50 [19]: > 180 µM (inactive)

COc1ccc2cc(C(c3nnnn3CCc3ccccc3)N3CCCC(C)C3)c(=O)[nH]c2c1 (centres undefined)
IC50 [20]: 2.7 µM (active)

CSc1ccccc1OCc1cc(C(=O)N2CCNC(=O)C2)no1
IC50 [3]: 6.88 µM (active)

Cc1cccc(OCC(=O)N2CCOCC2)c1
AC50 (Escherichia coli [1]): 37.1 µM (active) | AC50 (Escherichia coli [21]): 103 µM (active)

COC(=O)C(Cc1ccccc1)NCC(=O)Nc1cccc(Cl)c1C (centres undefined)
IC50 [20]: 1.57 µM (active)

C[C@@H]1CCCCO[C@@H](CN(C)C(=O)Nc2ccc3c(c2)OCO3)[C@@H](C)CN([C@@H](C)CO)C(=O)c2cc(N(C)C)ccc2O1
AC50 [2]: 114 µM (active)

Cc1ccc(C(=O)Nc2cccc([N+](=O)[O-])c2)cc1S(=O)(=O)Nc1ccc(NC(=O)c2ccccc2)cc1
EC50 (cells [22]): > 350 µM (not active) | IC50 [23]: 25.9 µM (active) | IC50 [24]: 61.1 µM (active) | EC50 (cells [25]): > 350 µM (not active)

CC(CC(=O)Nc1ncc([N+](=O)[O-])s1)c1ccccc1 (centres undefined)
EC50 [13]: 0.76 µM (active) | EC50 [16]: > 150 µM (inactive) | EC50 [17]: > 160 µM (inactive) | EC50 [19]: > 180 µM (inactive)

Cc1cc(-c2c(C)[nH]n(-c3ccc(Cl)cc3)c2=O)n(-c2ccc(Cl)cc2)n1
AC50 (Escherichia coli [1]): 46.2 µM (active) | EC50 (Streptokinase A): > 150 µM (not active) | EC50 [26]: 17.8 µM (active) | EC50 (Streptococcus): 62.8 µM (active)

O=C(c1ccc(Cl)cc1)N1CCN(c2cc(-c3ccccc3)nc3cc(-c4cccc(Cl)c4)nn23)CC1
EC50 [4]: 1.74 µM (active) | EC50 [5]: 1.99 µM (active)
